# Laboratory results as given in patent publication US20070010671A1, “Novel quinazoline derivatives and methods of treatment related to the use thereof” (priority 2003, published 2007).
# Structures can show the parent of a compound that is named as a salt.
# Biological target: MCH receptor (Homo sapiens, UniProt Q99705)
# Experiment: High throughput functional screening FLIPR/FDSS6000: inhibition of MCH-evoked intracellular Ca2+ changes
# Format: cell-based
# Conditions: antagonist activity, 50 nM of MCH, FLIPR or FDSS; read-out: IC50
# Description: Subsequently, a functional based assay was used to confirm the lead hits, referred to as FLIPR™ (the Fluorometric Imaging Plate Reader) and FDSS6000™ (Functional Drug Screening System). This assay utilized 3 non-endozenous, constitutively active version of the MCH receptor.
# The FLIPR and FDSS assays are able to detect intracellular Ca^2+ concentration in cells, which can be utilized to assess receptor activation and determine whether a candidate compound is an, for example, antagonist, inverse agonist or agonist to a Gq-coupled receptor. The concentration of free Ca^2+ in the cytosol of any cell is extremely low, whereas its concentration in the extracellular fluid and endoplasmic reticulum (ER) is very high. Thus, there is a large gradient tending to drive Ca^2+ into the cytosol across both the plasma membrane and ER. The FLIPR™ and FDSS6000™ systems (Molecular Devices Corporation, HAMAMATSU Photonics K.K.) are designed to perform functional cell-based assays, such as the measurement of intracellular calcium for high-throughput screening, The measurement of fluorescent is associated with calcium release upon activation of the Gq-coupled receptors.
# Fluorometric Imaging Plate Reader system was used to allow for rapid, kinetic measurements of intracellular fluorescence in 96 well microplates (or 384 well microplates). Simultaneous measurements of fluorescence in all wells can be made by FLIPR or FDSS6000™ every second with high sensitivity and precision. These systems are ideal for measuring cell-based functional assays such as monitoring the intracellular calcium fluxes that occur within seconds after activation of the Gq coupled receptor.
# Briefly, the cells are seeded into 96 well at 5.5×10^4 cells/well with complete culture media (Dulbecco's Modified Eagle Medium with 10% fetal bovine serum, 2 mMi L-glutamine, 1 mM sodium pyruvate and 0.5 mg/ml G418, pH 7.4) for the assay next day. On the day of assay, the media is removed and the cells are incubated with 100 μl of loading buffer (4 μM Fluo4-AM in complete culture media containing 2.5 mM Probenicid, 0.5 mg/ml and 0.2% bovine serum albumin) in 5% CO2 incubator at 37° C. for 1 hr. The loading buffer is removed, and the cells are washed with wash buffer (Hank's Balanced Salt Solution containing 2.5 mM Probenicid, 20 mM HEPES, 0.5 mg/ml and 0.2% bovine serum albumm, pH 7.4)). One hundred fifty μl of wash buffer containing various concentrations of test compound is added to the cells, and the cells are incubated in 5% CO2 incubator at 37° C. for 3 min. Fifty μl of wash buffer containing various concentration of MCH are added to each well, and transient changes in [Ca^2+]i evokled bee MCH are monoitored using the FLIPR, or FDSS in 96 shell plates at Ex. 488 nm and Em. 530 nm for 290 second. When antagonist activity of compound is tested, 50 nM of MCH is used.
# Use of FLIPR™ and FDSS6000™ can be accomplished by following manufacturer's instruction (Molecular Device Corporation and HAMAMATSU Photonics K.K.).
row,SMILES,IC50
1,"COc1ccc(NC(=O)N[C@H]2CC[C@@H](Nc3nc(N(C)C)c4ccccc4n3)CC2)cc1OC [Example 1, 1-(3,4-Dimethoxy)-phenyl)-3-[cis-4-(4-dimethylamino-quinazolin-2-ylamino)-cyclohexyl-urea hydrochloride]",13 nM
2,"CN(C)c1nc(N[C@H]2CC[C@@H](CNC(=O)Nc3cccc(Cl)c3Cl)CC2)nc2ccccc12 [Example 2, 1-(2,3-Dichloro-phenyl)-3-[cis-4-(4-dimethylamino-quinazolin-2-ylamino)-cyclohexylmethyl]-urea hydrochloride]",13 nM
3,"CN(C)c1nc(N[C@H]2CC[C@@H](CNC(=O)Nc3c(Cl)cccc3Cl)CC2)nc2ccccc12 [Example 3, 1-(2,6-Dichloro-phenyl)-3-[cis-4-(4-dimethylamino-quinazolin-2-)ylamino)-cyclohexylmethyl]-urea hydrochloride]",4.9 nM
4,"Cc1cccc(Oc2ncccc2C(=O)N[C@H]2CC[C@@H](Nc3nc(N(C)C)c4ccccc4n3)CC2)c1 [Example 898, N-(cis-4-{[4-(Dimethylamino)quinazolin-2-yl]amino}cyclohexyl)-2-(3-methylphenoxy)-nicotinamide trifluoroacetate]",3.3 nM
5,"CN(C)c1nc(N[C@H]2CC[C@@H](NC(=O)COc3ccc(F)c(F)c3)CC2)nc2ccccc12 [Example 909, 2-(3,4-Difluorophenoxy)-N-(cis-4-{[4-(dimethylamino)quinazolin-2-yl]amino}cyclohexyl)-acetamide trifluoroacetate]",0.97 nM

# Same assay, conditions: class by percent of control at 10^-7 M or IC50
row,SMILES,class
1,"CC(NC(=S)N[C@H]1CC[C@@H](Nc2nc(N(C)C)c3ccccc3n2)CC1)c1ccc(F)cc1 (relative stereo) [compound 273, N-(cis-4-{[4-(dimethylamino)quinazolin-2-yl]amino}cyclohexyl)-N′-[1-(4-fluorophenyl)ethyl]thiourea]",2 (Class 2: The value of percent of control at 10^−7 M was from 40% to 60% or the value of IC50 was from 50 nM to 200 nM.)
2,CC(NC(=S)N[C@H]1CC[C@@H](Nc2nc(N(C)C)c3ccccc3n2)CC1)c1ccccc1 (relative stereo) [compound 283],2 (Class 2: The value of percent of control at 10^−7 M was from 40% to 60% or the value of IC50 was from 50 nM to 200 nM.)
3,"CCOC(=O)[C@H](Cc1ccccc1)NC(=O)N[C@H]1CC[C@@H](Nc2nc(N(C)C)c3ccccc3n2)CC1 (relative stereo) [compound 336, ethyl N-{[(cis-4-{[4-(dimethylamino)quinazolin-2-yl]amino}cyclohexyl)amino]carbonyl}phenylalaninate]",1 (Class 1: The value of percent of control at 10^−7 M was less than 40% or the value of IC50 was less than 50 nM.)
4,CN(C)c1nc(N[C@H]2CC[C@@H](NC(=S)NC3CC4CCC3C4)CC2)nc2ccccc12 (relative stereo) [compound 377],1 (Class 1: The value of percent of control at 10^−7 M was less than 40% or the value of IC50 was less than 50 nM.)
5,CN(C)c1nc(N[C@H]2CC[C@@H](NC(=S)NC3CC4C=CC3C4)CC2)nc2ccccc12 (relative stereo) [compound 378],3 (Class 3: The value of percent of control at 10^−7 M was more than 60% or the value of IC50 was more than 200 nM.)
6,CN(C)c1nc(N[C@H]2CC[C@@H](CNC(=O)NC34CC5CC(CC(C5)C3)C4)CC2)nc2ccccc12 (relative stereo) [compound 406],3 (Class 3: The value of percent of control at 10^−7 M was more than 60% or the value of IC50 was more than 200 nM.)
7,"CCOC(=O)[C@H](CC(C)C)NC(=O)NC[C@H]1CC[C@@H](Nc2nc(N(C)C)c3ccccc3n2)CC1 (relative stereo) [compound 435, ethyl N-({[(cis-4-{[4-(dimethylamino)quinazolin-2-yl]amino}cyclohexyl)methyl]amino}carbonyl)leucinate]",1 (Class 1: The value of percent of control at 10^−7 M was less than 40% or the value of IC50 was less than 50 nM.)
8,"COC(=O)[C@H](CCSC)NC(=O)NC[C@H]1CC[C@@H](Nc2nc(N(C)C)c3ccccc3n2)CC1 (relative stereo) [compound 442, methyl N-({[(cis-4-{[4-(dimethylamino)quinazolin-2-yl]amino}cyclohexyl)methyl]amino}carbonyl)methioninate]",2 (Class 2: The value of percent of control at 10^−7 M was from 40% to 60% or the value of IC50 was from 50 nM to 200 nM.)
9,CC(NC(=O)NC[C@H]1CC[C@@H](Nc2nc(N(C)C)c3ccccc3n2)CC1)c1cccc2ccccc12 (relative stereo) [compound 461],3 (Class 3: The value of percent of control at 10^−7 M was more than 60% or the value of IC50 was more than 200 nM.)
10,COC(=O)[C@H](Cc1ccccc1)NC(=O)NC[C@H]1CC[C@@H](Nc2nc(N(C)C)c3ccccc3n2)CC1 (relative stereo) [compound 462],3 (Class 3: The value of percent of control at 10^−7 M was more than 60% or the value of IC50 was more than 200 nM.)
11,"CC(NC(=O)NC[C@H]1CC[C@@H](Nc2nc(N(C)C)c3ccccc3n2)CC1)c1ccccc1 (relative stereo) [compound 465, N-[(cis-4-{[4-(dimethylamino)quinazolin-2-yl]amino}cyclohexyl)methyl]-N′-(1-phenylethyl)urea]",2 (Class 2: The value of percent of control at 10^−7 M was from 40% to 60% or the value of IC50 was from 50 nM to 200 nM.)
12,CC(NC(=O)NC[C@H]1CC[C@@H](Nc2nc(N(C)C)c3ccccc3n2)CC1)c1ccc(Br)cc1 (relative stereo) [compound 575],3 (Class 3: The value of percent of control at 10^−7 M was more than 60% or the value of IC50 was more than 200 nM.)
13,CN(C)c1nc(N[C@H]2CC[C@@H](CNC(=S)NCC3CCCO3)CC2)nc2ccccc12 (relative stereo) [compound 620],2 (Class 2: The value of percent of control at 10^−7 M was from 40% to 60% or the value of IC50 was from 50 nM to 200 nM.)
14,CN(C)c1nc(N[C@H]2CC[C@@H](CNC(=S)NC34CC5CC(CC(C5)C3)C4)CC2)nc2ccccc12 (relative stereo) [compound 624],3 (Class 3: The value of percent of control at 10^−7 M was more than 60% or the value of IC50 was more than 200 nM.)
15,CC(NC(=S)NC[C@H]1CC[C@@H](Nc2nc(N(C)C)c3ccccc3n2)CC1)c1ccc(F)cc1 (relative stereo) [compound 697],2 (Class 2: The value of percent of control at 10^−7 M was from 40% to 60% or the value of IC50 was from 50 nM to 200 nM.)
16,CC(NC(=S)NC[C@H]1CC[C@@H](Nc2nc(N(C)C)c3ccccc3n2)CC1)c1ccccc1 (relative stereo) [compound 707],3 (Class 3: The value of percent of control at 10^−7 M was more than 60% or the value of IC50 was more than 200 nM.)
17,CCOC(=O)[C@H](Cc1ccccc1)NC(=O)NC[C@H]1CC[C@@H](Nc2nc(N(C)C)c3ccccc3n2)CC1 (relative stereo) [compound 756],3 (Class 3: The value of percent of control at 10^−7 M was more than 60% or the value of IC50 was more than 200 nM.)

# Same assay, conditions: class by percent of control at 10^-7 M or by IC50; read-out: class
row,SMILES,IC50
1,CN(C)c1nc(N[C@H]2CC[C@@H](NC(=S)NC34CC5CC(CC(C5)C3)C4)CC2)nc2ccccc12 (relative stereo) [compound 200],> 200 nM
2,CN(C)c1nc(N[C@H]2CC[C@@H](CNC(=S)NC3CC4CCC3C4)CC2)nc2ccccc12 (relative stereo) [compound 798],50 to 200 nM
3,"CN(C)c1nc(N[C@H]2CC[C@@H](CNC(=S)NC3CC4C=CC3C4)CC2)nc2ccccc12 (relative stereo) [compound 799, N-bicyclo[2.2.1]hept-5-en-2-yl-N′-[(cis-4-{[4-(dimethylamino)quinazolin-2-yl]amino}cyclohexyl)methyl]thiourea]",50 to 200 nM
4,"CN(C)c1nc(N[C@H]2CC[C@@H](C(=O)NCc3ccc(F)cc3F)CC2)nc2ccccc12 [Example 922, cis-N-(2,4-Difluorobenzyl)-4-{[4-(dimethylamino)quinazolin-2-yl]amino}cyclohexanecarbozamide]",> 200 nM

# Same assay, conditions: class by percent of control at 10^−7 M or by IC50; read-out: class
row,SMILES,IC50
1,"CN(C)c1nc(N[C@H]2CC[C@@H](C(=O)NCc3ccccc3)CC2)nc2cc(F)c(F)cc12 [Example 992, cis-N-benzyl-4-{[4-(dimethylamino)-6,7-difluoroquinazolin-2-yl]amino}cyclohexanecarboxamide]",50 to 200 nM
